Assay results as given in EPA's CvTdb concentration-time database.

Key:
Rat [1] = assay: concentration in plasma after dosing; conditions: dosed: 2-Hydroxy-4-methoxybenzophenone, 8 mg/kg, iv, Male, F344
Mouse [2] = assay: concentration in plasma after dosing; conditions: 10 min; dosed: 2-Hydroxy-4-methoxybenzophenone; 50 mg/kg; iv; Female; B6C3F1
Mouse [3] = assay: concentration in plasma after dosing; conditions: 0.25 h; dosed: 2-Hydroxy-4-methoxybenzophenone; 500 mg/kg; oral; Male; B6C3F1
Rat [4] = assay: concentration in plasma after dosing; conditions: dosed: 2-Hydroxy-4-methoxybenzophenone, 8 mg/kg, iv, Male, F344; remark: listed apart in the source
Mouse [5] = assay: concentration in plasma after dosing; conditions: 10 min; dosed: 2-Hydroxy-4-methoxybenzophenone; 500 mg/kg; oral; Male; B6C3F1
Rat [6] = assay: concentration in plasma after dosing; conditions: dosed: 2-Hydroxy-4-methoxybenzophenone, 250 mg/kg, oral, Male, F344
Mouse [7] = assay: concentration in plasma after dosing; conditions: dosed: 2-Hydroxy-4-methoxybenzophenone, 100 mg/kg, oral, Male, B6C3F1
Rat [8] = assay: concentration in plasma after dosing; conditions: dosed: Nitrite, 40 mg/kg, oral, Female, F344
Rat [9] = assay: concentration in plasma after dosing; conditions: 5 min; dosed: Nitrite; 80 mg/kg; oral; Female; F344
Rat [10] = assay: concentration in plasma after dosing; conditions: 5 min; dosed: Nitrite; 80 mg/kg; oral; Female; F344; remark: listed apart in the source
Rat [11] = assay: concentration in plasma after dosing; conditions: 0.5 h; dosed: Nitrite; 40 mg/kg; oral; Male; F344
Rat [12] = assay: concentration in liver after dosing; conditions: 12 h; dosed: Perfluorooctanoic acid; 12 mg/kg; oral; Male; Harlan Sprague Dawley
Rat [13] = assay: concentration in plasma after dosing; conditions: dosed: 678-39-7, 12 mg/kg, iv, Male, F344
Rat [14] = assay: concentration in liver after dosing; conditions: 24 h; dosed: Perfluorooctanoic acid; 80 mg/kg; oral; Female; Harlan Sprague Dawley
Rat [15] = assay: concentration in brain after dosing; conditions: 6 h; dosed: Perfluorooctanoic acid; 12 mg/kg; oral; Male; Harlan Sprague Dawley
Rat [16] = assay: concentration in brain after dosing; conditions: 24 h; dosed: Perfluorooctanoic acid; 12 mg/kg; oral; Male; Harlan Sprague Dawley
Rat [17] = assay: concentration in liver after dosing; conditions: 528 h; dosed: Perfluorooctanoic acid; 12 mg/kg; oral; Male; Harlan Sprague Dawley
Rat [18] = assay: concentration in plasma after dosing; conditions: 192 h; dosed: 678-39-7; 12 mg/kg; iv; Male; F344
Rat [19] = assay: concentration in kidney after dosing; conditions: 3 h; dosed: Fluorotelomer alcohol 8+2; 80 mg/kg; oral; Female; Harlan Sprague Dawley
Rat [20] = assay: concentration in liver after dosing; conditions: 6 h; dosed: Fluorotelomer alcohol 8+2; 80 mg/kg; oral; Female; Harlan Sprague Dawley
Rat [21] = assay: concentration in brain after dosing; conditions: 3 h; dosed: Perfluorooctanoic acid; 12 mg/kg; oral; Male; Harlan Sprague Dawley
Rat [22] = assay: concentration in liver after dosing; conditions: 12 h; dosed: Fluorotelomer alcohol 8+2; 24 mg/kg; oral; Male; Harlan Sprague Dawley
Rat [23] = assay: concentration in liver after dosing; conditions: 6 h; dosed: Fluorotelomer alcohol 8+2; 24 mg/kg; oral; Male; Harlan Sprague Dawley
Rat [24] = assay: concentration in plasma after dosing; conditions: 3 h; dosed: 678-39-7; 12 mg/kg; iv; Male; F344
Rat [25] = assay: concentration in kidney after dosing; conditions: 1 h; dosed: Fluorotelomer alcohol 8+2; 80 mg/kg; oral; Female; Harlan Sprague Dawley
Rat [26] = assay: concentration in plasma after dosing; conditions: dosed: Fluorotelomer alcohol 8+2, 12 mg/kg, oral, Male, Harlan Sprague Dawley
Rat [27] = assay: concentration in kidney after dosing; conditions: 0.5 h; dosed: Fluorotelomer alcohol 8+2; 80 mg/kg; oral; Female; Harlan Sprague Dawley
Rat [28] = assay: concentration in plasma after dosing; conditions: dosed: Potassium Perfluorobutane Sulfonate, 4 mg/kg, iv, Male, F344
Rat [29] = assay: concentration in plasma after dosing; conditions: 1 h; dosed: Potassium Perfluorobutane Sulfonate; 4 mg/kg; iv; Female; Harlan Sprague-Dawley
Rat [30] = assay: concentration in plasma after dosing; conditions: dosed: Potassium Perfluorobutane Sulfonate, 4 mg/kg, oral, Male, Harlan Sprague Dawley
Rat [31] = assay: concentration in liver after dosing; conditions: 1 h; dosed: Potassium Perfluorobutane Sulfonate; 20 mg/kg; oral; Female; Harlan Sprague Dawley
Rat [32] = assay: concentration in plasma after dosing; conditions: 0.5 h; dosed: Potassium Perfluorobutane Sulfonate; 4 mg/kg; iv; Male; F344
Rat [33] = assay: concentration in brain after dosing; conditions: 3 h; dosed: Potassium Perfluorobutane Sulfonate; 20 mg/kg; oral; Male; Harlan Sprague Dawley
Rat [34] = assay: concentration in kidney after dosing; conditions: 3 h; dosed: Potassium Perfluorobutane Sulfonate; 20 mg/kg; oral; Female; Harlan Sprague Dawley
Rat [35] = assay: concentration in liver after dosing; conditions: 3 h; dosed: Potassium Perfluorobutane Sulfonate; 20 mg/kg; oral; Male; Harlan Sprague Dawley
rat [36] = assay: amount in urine after dosing (umol); conditions: dosed: methanol, 100 mg/kg, iv, male, CDF(F344)/CrlBR

COc1ccc(C(=O)c2ccccc2)c(O)c1 [2-Hydroxy-4-methoxybenzophenone]
Conditions	concentration in plasma [ng/mL]
Mouse [7], 0.25 h	113
Mouse [7], 2 h	24.1
Mouse [7], 2.5 min	84.8
Mouse [7], 3 h	18.6
Mouse [7], 10 min	27.8
Rat [1], 10 h	8.52
Rat [1], 10 min	3770
Rat [4], 10 h	6.58
Rat [4], 10 min	3950
Rat [6], 0.25 h	318
Rat [6], 4 h	48.1

Conditions	concentration in plasma [ng/mL]
Mouse [2]	11500
Mouse [3]	395
Mouse [5]	93.1

O=N[O-] [Nitrite]
Rat [8]
Conditions	concentration in plasma [ng/mL]
1 h	8300
2 h	3600

Conditions	concentration in plasma [ng/mL]
Rat [9]	8200
Rat [10]	7300
Rat [11]	1900

O=C(O)C(F)(F)C(F)(F)C(F)(F)C(F)(F)C(F)(F)C(F)(F)C(F)(F)F [Perfluorooctanoic acid]
Conditions	concentration in brain [ng/g]	concentration in kidney [ng/g]	concentration in liver [ng/g]	concentration in plasma [ng/mL]
Rat [12]	–	–	56700	–
Rat [14]	–	–	7880	–
Rat [15]	1290	–	–	–
Rat [16]	1210	–	–	–
Rat [17]	–	–	19500	–
Rat [18]	–	–	–	310
Rat [19]	–	2010	–	–
Rat [20]	–	–	1430	–
Rat [21]	1330	–	–	–
Rat [22]	–	–	1700	–
Rat [23]	–	–	1450	–
Rat [24]	–	–	–	497
Rat [25]	–	353	–	–
Rat [27]	–	284	–	–

concentration in plasma [ng/mL]
Conditions	Rat [13]	Rat [26]
0.5 h	210	108
9 h	521	851

O=S(=O)([O-])C(F)(F)C(F)(F)C(F)(F)C(F)(F)F.[K+] [Potassium Perfluorobutane Sulfonate]
concentration in plasma [ng/mL]
Conditions	0.5 h	0.75 h	9 h	24 h
Rat [28]	–	24500	–	575
Rat [30]	6060	–	5230	–

Conditions	concentration in brain [ng/g]	concentration in kidney [ng/g]	concentration in liver [ng/g]	concentration in plasma [ng/mL]
Rat [29]	–	–	–	5120
Rat [31]	–	–	27800	–
Rat [32]	–	–	–	12000
Rat [33]	552	–	–	–
Rat [34]	–	10500	–	–
Rat [35]	–	–	80000	–

CO [methanol]
rat [36]
Conditions	amount in urine
0.9988 h	1.09
2.972 h	5.07
5.961 h	7.79
9.961 h	11.5
11.92 h	11.7
14.89 h	11.7
